Patent US8802673B2, “Heterocyclic amine derivatives” (Hoffmann-La Roche Inc, priority 2011, dated 2014)
Counter-ions that a name gives are not always drawn.

What follows are compounds tested against mouse TAAR1 (Mus musculus (Mouse), UniProt Q923Y8) (assay: Radioligand binding assay on mouse TAAR1). Details: mouse TAAR1 (first value of the cell), HEK-293 membranes; read-out: Ki (μM) mouse/rat.
Method: (§1) Construction of TAAR Expression Plasmids and Stably Transfected Cell Lines
(§2) For the construction of expression plasmids the coding sequences of human, rat and mouse TAAR 1 were amplified from genomic DNA essentially as described by Lindemann et al.. The Expand High Fidelity PCR System (Roche Diagnostics) was used with 1.5 mM Mg^2+ and purified PCR products were cloned into pCR2.1-TOPO cloning vector (Invitrogen) following the instructions of the manufacturer. PCR products were subcloned into the pIRESneo2 vector (BD Clontech, Palo Alto, Calif.), and expression vectors were sequence verified before introduction in cell lines.
(§3) HEK293 cells (ATCC #CRL-1573) were cultured essentially as described by Lindemann et al. (2005). For the generation of stably transfected cell lines HEK293 cells were transfected with the pIRESneo2 expression plasmids containing the TAAR coding sequences (described above) with Lipofectamine 2000 (Invitrogen) according to the instructions of the manufacturer, and 24 hrs post transfection the culture medium was supplemented with 1 mg/ml G418 (Sigma, Buchs, Switzerland). After a culture period of about 10 d clones were isolated, expanded and tested for responsiveness to trace amines (all compounds purchased from Sigma) with the cAMP Biotrak Enzyme immunoassay (EIA) System (Amersham) following the non-acetylation EIA procedure provided by the manufacturer.
Radioligand Binding Assay on Mouse TAAR1
Membrane Preparation and Radioligand Binding.
(§4) HEK-293 cells stably expressing mouse TAAR1 were maintained at 37° C. and 5% CO2 in DMEM high glucose medium, containing fetal calf serum (10%, heat inactivated for 30 min at 56° C.), penicillin/streptomycin (1%), and 375 μg/ml geneticin (Gibco). Cells were released from culture flasks using trypsin/EDTA, harvested, washed twice with ice-cold PBS (without Ca^2+ and Mg^2+), pelleted at 1,000 rpm for 5 min at 4° C., frozen and stored at −80° C. Frozen pellets were suspended in 20 ml HEPES-NaOH (20 mM, pH 7.4) containing 10 mM EDTA and homogenized with a Polytron (PT 6000, Kinematica) at 14,000 rpm for 20 s. The homogenate was centrifuged at 48,000×g for 30 min at 4° C. Subsequently, the supernatant was removed and discarded, and the pellet resuspended in 20 ml HEPES-NaOH (20 mM, pH 7.4) containing 0.1 mM EDTA using the Polytron (20 s at 14,000 rpm). This procedure was repeated and the final pellet resuspended in HEPES-NaOH containing 0.1 mM EDTA and homogenized using the Polytron. Typically, aliquots of 2 ml membrane portions were stored at −80° C. With each new membrane batch the dissociation constant (Kd) was determined via a saturation curve. […] All compounds were tested at a broad range of concentrations (10 pM to 10 μM) in duplicates. […] The 96 deep well plates were incubated for 1 hr at 4° C. Incubations were terminated by rapid filtration through Unifilter-96 plates (Packard Instrument Company) and glass filters GF/C (Perkin Elmer) presoaked for 1 hr in polyethylenimine (0.3%) and washed 3 times with 1 ml of cold binding buffer. After addition of 45 μl of Microscint 40 (PerkinElmer) the Unifilter-96 plate was sealed and after 1 hr the ratioactivity counted using a TopCount Microplate Scintillation Counter (Packard Instrument Company).

mouse TAAR1, sequence (Q923Y8 whole entry): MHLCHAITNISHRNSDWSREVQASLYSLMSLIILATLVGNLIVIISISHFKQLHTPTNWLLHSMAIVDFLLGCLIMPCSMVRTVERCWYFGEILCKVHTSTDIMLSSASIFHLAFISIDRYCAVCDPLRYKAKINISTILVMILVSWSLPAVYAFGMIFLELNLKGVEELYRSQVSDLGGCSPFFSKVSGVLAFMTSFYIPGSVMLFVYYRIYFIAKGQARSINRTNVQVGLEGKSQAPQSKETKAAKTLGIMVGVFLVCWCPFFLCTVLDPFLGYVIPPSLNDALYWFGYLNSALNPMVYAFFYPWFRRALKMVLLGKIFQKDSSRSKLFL

Row | Ki | Structure (SMILES)
1 | 0.0118 µM | CCOc1cc(Nc2ccc([C@H]3CNCCO3)cc2)cnc1Cl [Example 71, (S)-6-Chloro-5-ethoxy-N-(4-(morpholin-2-yl)phenyl)pyridin-3-amine]
2 | 0.0029 µM | CCc1cnc(Nc2ccc(C3CNCCO3)cc2F)nc1 (racemic) [Example 97, (RS)-5-Ethyl-N-(2-fluoro-4-(morpholin-2-yl)phenyl)pyrimidin-2-amine]
3 | 0.0024 µM | c1cc([C@@H]2CNCCO2)ccc1Nc1ncc(C2CC2)cn1 [Example 86, (5-Cyclopropyl-pyrimidin-2-yl)-((R)-4-morpholin-2-yl-phenyl)-amine]
4 | 0.074 µM | Cc1cc(C)nc(Nc2ccc(C3CCNC3)cc2)n1 (racemic) [Example 1, (RS)-(4,6-Dimethyl-pyrimidin-2-yl)-(4-pyrrolidin-3-yl-phenyl)-amine; hydrochloride]
5 | 0.0028 µM | c1ccc2nc(Nc3ccc([C@@H]4CNCCO4)cc3)ncc2c1 [Example 177, ((R)-4-Morpholin-2-yl-phenyl)-quinazolin-2-yl-amine]
6 | 0.0047 µM | FC(F)Oc1cnc(Nc2ccc([C@@H]3CNCCO3)cc2)nc1 [Example 179, (R)-5-(Difluoromethoxy)-N-(4-(morpholin-2-yl)phenyl)pyrimidin-2-amine]
7 | 0.0133 µM | Clc1cnc(Nc2ccc(C3CNCCO3)cc2)nc1 (racemic) [Example 6, (RS)-(5-Chloro-pyrimidin-2-yl)-(4-morpholin-2-yl-phenyl)-amine]
8 | 0.0005 µM | Clc1cccc2ccc(Nc3ccc([C@H]4CNCCO4)cc3)nc12 [Example 52, (S)-8-Chloro-N-(4-(morpholin-2-yl)phenyl)quinolin-2-amine]
9 | 0.0058 µM | Fc1cc(C2CNCCO2)ccc1Nc1ncc(C(F)(F)F)cn1 (racemic) [Example 121, (RS)-(2-Fluoro-4-morpholin-2-yl-phenyl)-(5-trifluoromethyl-pyrimidin-2-yl)-amine]
10 | 0.0174 µM | CC(C)Oc1cnc(Nc2ccc([C@@H]3CNCCO3)cc2)nc1 [Example 123, (5-Isopropoxy-pyrimidin-2-yl)-((R)-4-morpholin-2-yl-phenyl)-amine]
11 | 1.02 µM | CNC(=O)c1cnc(Nc2ccc([C@H]3CNCCO3)cc2)nc1 [Example 158, 2-((S)-4-Morpholin-2-yl-phenylamino)-pyrimidine-5-carboxylic acid methylamide]
12 | 0.0011 µM | c1ccc(-c2cc(Nc3ccc([C@H]4CNCCO4)cc3)n[nH]2)cc1 [Example 113, (S)—N-(4-(Morpholin-2-yl)phenyl)-5-phenyl-1H-pyrazol-3-amine]

Row | Structure (SMILES) | Ki
13 | Fc1cc(Nc2ncc(C3CC3)cn2)ccc1[C@H]1CNCCO1 [Example 195, (S)-5-Cyclopropyl-N-(3-fluoro-4-(morpholin-2-yl)phenyl)pyrimidin-2-amine] | 0.0017 µM
14 | Clc1cnc(Nc2ccc([C@@H]3CNCCO3)cc2)cn1 [Example 205, (R)-5-Chloro-N-(4-(morpholin-2-yl)phenyl)pyrazin-2-amine] | 0.0026 µM
15 | Fc1cc(Nc2ncc(Cl)cn2)ccc1[C@@H]1CNCCO1 [Example 210, (R)-5-Chloro-N-(3-fluoro-4-(morpholin-2-yl)phenyl)pyrimidin-2-amine] | 0.0047 µM
16 | c1coc(-c2cnc(Nc3ccc([C@@H]4CNCCO4)cc3)nc2)c1 [Example 148, (5-Furan-2-yl-pyrimidin-2-yl)-((R)-4-morpholin-2-yl-phenyl)-amine] | 0.0017 µM
17 | Brc1ccc(CNc2ccc([C@H]3CNCCO3)cc2)cc1 [Example 45, (4-Bromo-benzyl)-((S)-4-morpholin-2-yl-phenyl)-amine] | 0.0061 µM
18 | Fc1ncccc1Nc1ccc([C@H]2CNCCO2)cc1 [Example 55, (2-Fluoro-pyridin-3-yl)-((S)-4-morpholin-2-yl-phenyl)-amine] | 0.738 µM
19 | c1cc(Nc2ccc(C3CNCCO3)cc2)[nH]n1 (racemic) [Example 155, (RS)-(4-Morpholin-2-yl-phenyl)-(1H-pyrazol-3-yl)-amine] | 0.6 µM

Each compound was assayed against rat TAAR1 (Rattus norvegicus (Rat), UniProt Q923Y9) (assay: Radioligand binding assay on rat TAAR1). Details: rat TAAR1 (second value of the cell), HEK-293 membranes; read-out: Ki (μM) mouse/rat.
Method: as §1, §2, §3
Radioligand Binding Assay on Rat TAAR1
Membrane Preparation and Radioligand Binding
as §4, with “rat” for “mouse”

rat TAAR1, sequence (Q923Y9 whole entry): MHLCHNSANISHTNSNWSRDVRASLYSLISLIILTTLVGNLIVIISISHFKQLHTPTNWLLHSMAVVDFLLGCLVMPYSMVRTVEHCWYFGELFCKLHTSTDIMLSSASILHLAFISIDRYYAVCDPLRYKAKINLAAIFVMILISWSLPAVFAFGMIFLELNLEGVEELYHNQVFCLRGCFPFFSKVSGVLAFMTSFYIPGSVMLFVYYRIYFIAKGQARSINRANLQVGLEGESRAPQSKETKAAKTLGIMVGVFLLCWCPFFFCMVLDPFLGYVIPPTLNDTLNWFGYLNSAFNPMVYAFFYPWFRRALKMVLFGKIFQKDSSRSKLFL

Row | Ki | Structure (SMILES)
20 | 0.168 µM | CCOc1cc(Nc2ccc([C@H]3CNCCO3)cc2)cnc1Cl [Example 71, (S)-6-Chloro-5-ethoxy-N-(4-(morpholin-2-yl)phenyl)pyridin-3-amine]
21 | 0.0056 µM | CCc1cnc(Nc2ccc(C3CNCCO3)cc2F)nc1 (racemic) [Example 97, (RS)-5-Ethyl-N-(2-fluoro-4-(morpholin-2-yl)phenyl)pyrimidin-2-amine]
22 | 0.009 µM | c1cc([C@@H]2CNCCO2)ccc1Nc1ncc(C2CC2)cn1 [Example 86, (5-Cyclopropyl-pyrimidin-2-yl)-((R)-4-morpholin-2-yl-phenyl)-amine]
23 | 1.51 µM | Cc1cc(C)nc(Nc2ccc(C3CCNC3)cc2)n1 (racemic) [Example 1, (RS)-(4,6-Dimethyl-pyrimidin-2-yl)-(4-pyrrolidin-3-yl-phenyl)-amine; hydrochloride]
24 | 0.0299 µM | c1ccc2nc(Nc3ccc([C@@H]4CNCCO4)cc3)ncc2c1 [Example 177, ((R)-4-Morpholin-2-yl-phenyl)-quinazolin-2-yl-amine]
25 | 0.0517 µM | FC(F)Oc1cnc(Nc2ccc([C@@H]3CNCCO3)cc2)nc1 [Example 179, (R)-5-(Difluoromethoxy)-N-(4-(morpholin-2-yl)phenyl)pyrimidin-2-amine]
26 | 0.232 µM | Clc1cnc(Nc2ccc(C3CNCCO3)cc2)nc1 (racemic) [Example 6, (RS)-(5-Chloro-pyrimidin-2-yl)-(4-morpholin-2-yl-phenyl)-amine]
27 | 0.0084 µM | Clc1cccc2ccc(Nc3ccc([C@H]4CNCCO4)cc3)nc12 [Example 52, (S)-8-Chloro-N-(4-(morpholin-2-yl)phenyl)quinolin-2-amine]
28 | 0.0096 µM | Fc1cc(C2CNCCO2)ccc1Nc1ncc(C(F)(F)F)cn1 (racemic) [Example 121, (RS)-(2-Fluoro-4-morpholin-2-yl-phenyl)-(5-trifluoromethyl-pyrimidin-2-yl)-amine]
29 | 0.0796 µM | CC(C)Oc1cnc(Nc2ccc([C@@H]3CNCCO3)cc2)nc1 [Example 123, (5-Isopropoxy-pyrimidin-2-yl)-((R)-4-morpholin-2-yl-phenyl)-amine]
30 | 1.85 µM | CNC(=O)c1cnc(Nc2ccc([C@H]3CNCCO3)cc2)nc1 [Example 158, 2-((S)-4-Morpholin-2-yl-phenylamino)-pyrimidine-5-carboxylic acid methylamide]
31 | 0.0877 µM | c1ccc(-c2cc(Nc3ccc([C@H]4CNCCO4)cc3)n[nH]2)cc1 [Example 113, (S)—N-(4-(Morpholin-2-yl)phenyl)-5-phenyl-1H-pyrazol-3-amine]
32 | 0.0185 µM | Fc1cc(C2CNCCO2)ccc1Nc1ccc(Cl)cn1 (racemic) [Example 99, (RS)-5-Chloro-N-(2-fluoro-4-(morpholin-2-yl)phenyl)pyridin-2-amine]
33 | 0.003 µM | Fc1cc([C@@H]2CNCCO2)ccc1Nc1ncc(C2CC2)cn1 [Example 118, (5-Cyclopropyl-pyrimidin-2-yl)-((R)-2-fluoro-4-morpholin-2-yl-phenyl)-amine]
34 | 0.0051 µM | Fc1cc([C@H]2CNCCO2)ccc1Nc1ncc(C2CC2)cn1 [Example 119, (5-Cyclopropyl-pyrimidin-2-yl)-((S)-2-fluoro-4-morpholin-2-yl-phenyl)-amine]

Row | Structure (SMILES) | Ki
35 | Fc1cc(Nc2ncc(C3CC3)cn2)ccc1[C@H]1CNCCO1 [Example 195, (S)-5-Cyclopropyl-N-(3-fluoro-4-(morpholin-2-yl)phenyl)pyrimidin-2-amine] | 0.0252 µM
36 | Clc1cnc(Nc2ccc([C@@H]3CNCCO3)cc2)cn1 [Example 205, (R)-5-Chloro-N-(4-(morpholin-2-yl)phenyl)pyrazin-2-amine] | 0.162 µM
37 | Fc1cc(Nc2ncc(Cl)cn2)ccc1[C@@H]1CNCCO1 [Example 210, (R)-5-Chloro-N-(3-fluoro-4-(morpholin-2-yl)phenyl)pyrimidin-2-amine] | 0.0266 µM
38 | c1coc(-c2cnc(Nc3ccc([C@@H]4CNCCO4)cc3)nc2)c1 [Example 148, (5-Furan-2-yl-pyrimidin-2-yl)-((R)-4-morpholin-2-yl-phenyl)-amine] | 0.0083 µM
39 | Brc1ccc(CNc2ccc([C@H]3CNCCO3)cc2)cc1 [Example 45, (4-Bromo-benzyl)-((S)-4-morpholin-2-yl-phenyl)-amine] | 0.126 µM
40 | Fc1ncccc1Nc1ccc([C@H]2CNCCO2)cc1 [Example 55, (2-Fluoro-pyridin-3-yl)-((S)-4-morpholin-2-yl-phenyl)-amine] | 1.98 µM
41 | Cc1cc([C@H]2CNCCO2)ccc1Nc1ncc(C2CC2)cn1 [Example 111, (5-Cyclopropyl-pyrimidin-2-yl)-((S)-2-methyl-4-morpholin-2-yl-phenyl)-amine] | 0.0322 µM
42 | Brc1ccc(Nc2ccc([C@@H]3CNCCO3)cn2)nc1 [Example 108, (R)-5-Bromo-N-(5-(morpholin-2-yl)pyridin-2-yl)pyridin-2-amine] | 0.216 µM
43 | Fc1cc([C@@H]2CNCCO2)ccc1Nc1ncc(Br)cn1 [Example 126, (5-Bromo-pyrimidin-2-yl)-((R)-2-fluoro-4-morpholin-2-yl-phenyl)-amine] | 0.0096 µM
44 | Fc1cc([C@H]2CNCCO2)ccc1Nc1ncc(Br)cn1 [Example 127, (5-Bromo-pyrimidin-2-yl)-((S)-2-fluoro-4-morpholin-2-yl-phenyl)-amine] | 0.0165 µM
45 | Cc1cc([C@@H]2CNCCO2)ccc1Nc1ncc(C2CC2)cn1 [Example 110, (5-Cyclopropyl-pyrimidin-2-yl)-((R)-2-methyl-4-morpholin-2-yl-phenyl)-amine] | 0.0306 µM
46 | Brc1cnc(Nc2ccc([C@@H]3CNCCO3)cc2)nc1 [Example 94, (5-Bromo-pyrimidin-2-yl)-((R)-4-morpholin-2-yl-phenyl)-amine] | 0.0489 µM
47 | Brc1ccc(Nc2ccc([C@H]3CNCCO3)cn2)nc1 [Example 109, (S)-5-Bromo-N-(5-(morpholin-2-yl)pyridin-2-yl)pyridin-2-amine] | 0.362 µM
